Test results from ChEMBL document CHEMBL1154277, “Discovery of N-substituted pyridinones as potent and selective inhibitors of p38 kinase” (Bioorg Med Chem Lett, 2009).

Tests used:
[1] = target: Leukocyte tyrosine kinase receptor (Homo sapiens) (UniProt P29376); experiment: Inhibition of LTK at 10 uM
[2] = target: Serine/threonine-protein kinase 4 (Homo sapiens) (UniProt Q13043); experiment: Inhibition of MST1 at 10 uM
[3] = target: Inhibitor of nuclear factor kappa-B kinase subunit beta (Homo sapiens) (UniProt O14920); experiment: Inhibition of IKK-beta at 10 uM
[4] = target: Protein-tyrosine kinase 6 (Homo sapiens) (UniProt Q13882); experiment: Inhibition of Brk at 10 uM
[5] = target: Dual specificity protein kinase CLK1 (Homo sapiens) (UniProt P49759); experiment: Inhibition of CLK1 at 10 uM
[6] = target: AMP-activated protein kinase (AMPK) alpha-1/beta-1/gamma-1 (Homo sapiens) (UniProt P54619+Q9Y478+Q13131); experiment: Inhibition of AMPK alpha-1/beta-1/gamma-1 at 10 uM; format: protein-complex assay
[7] = target: Dual specificity mitogen-activated protein kinase kinase 6 (Homo sapiens) (UniProt P52564); experiment: Inhibition of MKK6 at 10 uM
[8] = target: Proto-oncogene tyrosine-protein kinase receptor Ret (Homo sapiens) (UniProt P07949); experiment: Inhibition of RET at 10 uM
[9] = target: Beta-adrenergic receptor kinase 1 (Homo sapiens) (UniProt P25098); experiment: Inhibition of GRK2 at 10 uM
[10] = target: Testis-specific serine/threonine-protein kinase 2 (Homo sapiens) (UniProt Q96PF2); experiment: Inhibition of TSSK2 at 10 uM
[11] = target: MAP kinase-activated protein kinase 5 (Homo sapiens) (UniProt Q8IW41); experiment: Inhibition of PRAK at 10 uM
[12] = target: Non-receptor tyrosine-protein kinase TYK2 (Homo sapiens) (UniProt P29597); experiment: Inhibition of TYK2 at 10 uM
[13] = target: Fibroblast growth factor receptor 3 (Homo sapiens) (UniProt P22607); experiment: Inhibition of FGFR3 at 10 uM
[14] = target: NUAK family SNF1-like kinase 1 (Homo sapiens) (UniProt O60285); experiment: Inhibition of NUAK1 at 10 uM
[15] = target: Serine/threonine-protein kinase TBK1 (Homo sapiens) (UniProt Q9UHD2); experiment: Inhibition of TBK1 at 10 uM
[16] = target: Vascular endothelial growth factor receptor 2 (Homo sapiens) (UniProt P35968); experiment: Inhibition of KDR at 10 uM
[17] = target: 3-phosphoinositide-dependent protein kinase 1 (Homo sapiens) (UniProt O15530); experiment: Inhibition of PDK1 at 10 uM
[18] = target: Tyrosine-protein kinase JAK3 (Homo sapiens) (UniProt P52333); experiment: Inhibition of JAK3 at 10 uM
[19] = target: Serine/threonine-protein kinase N1 (Homo sapiens) (UniProt Q16512); experiment: Inhibition of PRK1 at 10 uM
[20] = target: SRSF protein kinase 2 (Homo sapiens) (UniProt P78362); experiment: Inhibition of SRPK2 at 10 uM
[21] = target: Mitogen-activated protein kinase 1 (Homo sapiens) (UniProt P28482); experiment: Inhibition of ERK2 at 10 uM
[22] = target: Interleukin-1 receptor-associated kinase 1 (Homo sapiens) (UniProt P51617); experiment: Inhibition of IRAK1 at 10 uM
[23] = target: Rho-associated protein kinase 1 (Homo sapiens) (UniProt Q13464); experiment: Inhibition of ROCK1 at 10 uM

Chain of Inhibitor of nuclear factor kappa-B kinase subunit beta (Homo sapiens) (O14920 whole entry): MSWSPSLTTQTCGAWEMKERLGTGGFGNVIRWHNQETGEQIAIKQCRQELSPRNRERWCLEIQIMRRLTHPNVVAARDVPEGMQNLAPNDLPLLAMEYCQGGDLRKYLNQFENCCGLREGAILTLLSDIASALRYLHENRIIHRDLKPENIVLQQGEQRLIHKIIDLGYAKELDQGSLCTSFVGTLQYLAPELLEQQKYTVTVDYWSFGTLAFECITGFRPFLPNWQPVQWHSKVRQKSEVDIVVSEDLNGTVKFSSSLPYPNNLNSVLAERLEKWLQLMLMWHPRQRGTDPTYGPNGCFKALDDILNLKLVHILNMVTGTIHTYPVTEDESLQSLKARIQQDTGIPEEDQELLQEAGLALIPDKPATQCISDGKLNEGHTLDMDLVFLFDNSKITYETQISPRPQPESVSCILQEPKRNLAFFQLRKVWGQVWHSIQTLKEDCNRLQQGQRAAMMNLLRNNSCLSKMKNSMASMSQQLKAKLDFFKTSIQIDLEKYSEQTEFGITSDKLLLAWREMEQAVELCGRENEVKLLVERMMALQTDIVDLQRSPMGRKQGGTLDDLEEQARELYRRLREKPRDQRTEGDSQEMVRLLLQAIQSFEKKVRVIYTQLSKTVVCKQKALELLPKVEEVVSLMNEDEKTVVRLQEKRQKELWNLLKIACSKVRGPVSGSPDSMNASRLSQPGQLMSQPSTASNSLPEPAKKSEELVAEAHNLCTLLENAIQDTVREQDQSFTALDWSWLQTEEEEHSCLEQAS
Chain of Serine/threonine-protein kinase TBK1 (Homo sapiens) (Q9UHD2 whole entry): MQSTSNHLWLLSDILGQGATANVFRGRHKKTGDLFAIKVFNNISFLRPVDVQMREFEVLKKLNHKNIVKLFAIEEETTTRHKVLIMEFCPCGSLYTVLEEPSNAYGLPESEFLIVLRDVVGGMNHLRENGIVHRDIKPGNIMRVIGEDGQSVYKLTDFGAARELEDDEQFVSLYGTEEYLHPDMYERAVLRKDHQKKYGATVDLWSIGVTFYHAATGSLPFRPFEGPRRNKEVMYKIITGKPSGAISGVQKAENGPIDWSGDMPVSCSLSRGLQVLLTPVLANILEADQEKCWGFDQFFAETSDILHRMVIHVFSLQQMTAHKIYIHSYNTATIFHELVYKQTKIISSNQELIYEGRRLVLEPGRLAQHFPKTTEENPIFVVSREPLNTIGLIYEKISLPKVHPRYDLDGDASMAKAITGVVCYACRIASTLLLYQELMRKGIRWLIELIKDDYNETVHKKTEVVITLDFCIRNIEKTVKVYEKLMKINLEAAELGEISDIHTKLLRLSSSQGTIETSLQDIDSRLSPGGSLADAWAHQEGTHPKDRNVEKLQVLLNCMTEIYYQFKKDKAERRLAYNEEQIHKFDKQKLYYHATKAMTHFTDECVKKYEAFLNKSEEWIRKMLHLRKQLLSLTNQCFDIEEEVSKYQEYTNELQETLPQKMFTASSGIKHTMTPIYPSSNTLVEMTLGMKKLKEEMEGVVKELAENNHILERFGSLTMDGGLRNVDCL
Chain of MAP kinase-activated protein kinase 5 (Homo sapiens) (Q8IW41 whole entry): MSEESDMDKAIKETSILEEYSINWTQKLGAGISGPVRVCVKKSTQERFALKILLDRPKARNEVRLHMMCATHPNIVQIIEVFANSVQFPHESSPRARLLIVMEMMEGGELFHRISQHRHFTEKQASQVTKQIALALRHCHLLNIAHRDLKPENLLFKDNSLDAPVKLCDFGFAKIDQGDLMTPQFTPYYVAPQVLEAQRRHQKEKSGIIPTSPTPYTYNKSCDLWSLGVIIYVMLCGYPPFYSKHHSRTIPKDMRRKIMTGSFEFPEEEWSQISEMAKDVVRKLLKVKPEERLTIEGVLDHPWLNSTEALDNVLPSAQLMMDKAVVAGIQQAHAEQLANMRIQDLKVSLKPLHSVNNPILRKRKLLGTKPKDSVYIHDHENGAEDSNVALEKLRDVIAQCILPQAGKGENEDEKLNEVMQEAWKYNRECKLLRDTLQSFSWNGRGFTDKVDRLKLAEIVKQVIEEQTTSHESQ
Chain of 3-phosphoinositide-dependent protein kinase 1 (Homo sapiens) (O15530 whole entry, looked up): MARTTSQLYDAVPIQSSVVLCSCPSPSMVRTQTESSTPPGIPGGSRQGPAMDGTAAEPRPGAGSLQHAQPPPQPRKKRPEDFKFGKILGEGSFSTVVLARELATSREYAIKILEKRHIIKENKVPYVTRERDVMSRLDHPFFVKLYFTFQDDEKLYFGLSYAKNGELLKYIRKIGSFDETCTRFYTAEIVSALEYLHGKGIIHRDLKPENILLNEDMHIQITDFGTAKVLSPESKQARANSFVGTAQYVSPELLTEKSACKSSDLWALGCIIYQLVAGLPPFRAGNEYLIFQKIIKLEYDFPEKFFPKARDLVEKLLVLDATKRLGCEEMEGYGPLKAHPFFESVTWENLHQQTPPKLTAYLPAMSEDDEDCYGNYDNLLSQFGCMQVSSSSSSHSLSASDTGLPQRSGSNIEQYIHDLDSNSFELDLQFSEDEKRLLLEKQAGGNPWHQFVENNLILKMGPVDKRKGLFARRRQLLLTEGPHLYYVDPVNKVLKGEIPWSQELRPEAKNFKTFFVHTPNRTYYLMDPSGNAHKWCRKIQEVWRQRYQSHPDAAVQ
Chain of Protein-tyrosine kinase 6 (Homo sapiens) (Q13882 whole entry, looked up): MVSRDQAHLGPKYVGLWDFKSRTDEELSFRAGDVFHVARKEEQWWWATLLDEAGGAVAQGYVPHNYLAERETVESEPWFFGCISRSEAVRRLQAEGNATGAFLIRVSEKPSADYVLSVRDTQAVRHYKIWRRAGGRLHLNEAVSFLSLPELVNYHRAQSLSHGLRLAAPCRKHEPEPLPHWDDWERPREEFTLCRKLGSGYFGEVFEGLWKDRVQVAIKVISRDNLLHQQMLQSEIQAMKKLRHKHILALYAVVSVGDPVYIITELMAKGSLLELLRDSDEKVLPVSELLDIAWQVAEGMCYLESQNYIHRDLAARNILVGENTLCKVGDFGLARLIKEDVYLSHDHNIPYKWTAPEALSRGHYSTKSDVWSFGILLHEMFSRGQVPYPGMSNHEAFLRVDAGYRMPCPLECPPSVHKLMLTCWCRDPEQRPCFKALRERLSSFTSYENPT
Chain of Vascular endothelial growth factor receptor 2 (Homo sapiens) (P35968 whole entry): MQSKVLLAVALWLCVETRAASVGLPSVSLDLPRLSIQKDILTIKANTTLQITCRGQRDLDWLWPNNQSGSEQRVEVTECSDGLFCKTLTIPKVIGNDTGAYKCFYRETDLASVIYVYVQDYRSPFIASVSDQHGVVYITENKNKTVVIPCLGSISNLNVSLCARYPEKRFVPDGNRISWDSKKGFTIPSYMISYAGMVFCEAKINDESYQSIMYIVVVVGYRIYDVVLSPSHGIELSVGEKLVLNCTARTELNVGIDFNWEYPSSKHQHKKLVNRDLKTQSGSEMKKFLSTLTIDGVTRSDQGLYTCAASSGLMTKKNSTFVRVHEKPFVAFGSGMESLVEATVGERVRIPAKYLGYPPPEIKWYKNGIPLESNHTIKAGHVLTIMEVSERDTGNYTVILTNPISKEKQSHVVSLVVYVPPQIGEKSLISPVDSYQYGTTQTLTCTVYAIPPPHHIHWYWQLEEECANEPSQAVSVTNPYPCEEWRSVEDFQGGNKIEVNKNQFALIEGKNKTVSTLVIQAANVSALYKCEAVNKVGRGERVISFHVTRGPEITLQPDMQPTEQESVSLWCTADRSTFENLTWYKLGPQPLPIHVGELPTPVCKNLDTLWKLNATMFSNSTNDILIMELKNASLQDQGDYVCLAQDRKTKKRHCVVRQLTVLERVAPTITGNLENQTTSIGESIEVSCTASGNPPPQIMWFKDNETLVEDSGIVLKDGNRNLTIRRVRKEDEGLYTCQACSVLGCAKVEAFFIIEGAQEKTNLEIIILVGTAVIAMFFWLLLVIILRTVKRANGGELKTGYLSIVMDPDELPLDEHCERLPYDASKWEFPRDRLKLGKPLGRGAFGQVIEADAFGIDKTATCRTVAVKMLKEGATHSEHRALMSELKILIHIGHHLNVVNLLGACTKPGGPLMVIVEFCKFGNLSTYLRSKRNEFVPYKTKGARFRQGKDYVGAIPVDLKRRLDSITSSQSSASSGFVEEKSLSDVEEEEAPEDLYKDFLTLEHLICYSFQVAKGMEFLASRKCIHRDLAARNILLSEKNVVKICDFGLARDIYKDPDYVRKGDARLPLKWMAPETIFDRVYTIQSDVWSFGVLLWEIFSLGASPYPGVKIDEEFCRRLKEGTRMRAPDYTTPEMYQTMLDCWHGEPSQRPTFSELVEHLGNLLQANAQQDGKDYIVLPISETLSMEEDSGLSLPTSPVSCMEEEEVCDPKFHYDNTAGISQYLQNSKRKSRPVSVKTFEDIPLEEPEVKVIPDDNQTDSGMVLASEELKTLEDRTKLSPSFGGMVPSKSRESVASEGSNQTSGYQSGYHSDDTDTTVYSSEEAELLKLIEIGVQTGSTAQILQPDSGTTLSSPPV
Chain of Mitogen-activated protein kinase 1 (Homo sapiens) (P28482 whole entry): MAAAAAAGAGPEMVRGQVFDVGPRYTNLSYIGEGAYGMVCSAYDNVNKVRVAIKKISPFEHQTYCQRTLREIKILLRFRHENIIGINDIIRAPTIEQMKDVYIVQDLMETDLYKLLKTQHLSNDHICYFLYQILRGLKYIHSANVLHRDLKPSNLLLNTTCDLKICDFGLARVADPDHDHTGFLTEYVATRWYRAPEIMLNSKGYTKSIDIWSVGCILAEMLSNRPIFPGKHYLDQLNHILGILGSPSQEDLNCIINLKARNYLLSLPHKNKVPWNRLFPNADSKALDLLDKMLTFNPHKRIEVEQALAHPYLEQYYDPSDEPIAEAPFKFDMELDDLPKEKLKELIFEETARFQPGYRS
Chain of Dual specificity mitogen-activated protein kinase kinase 6 (Homo sapiens) (P52564 whole entry): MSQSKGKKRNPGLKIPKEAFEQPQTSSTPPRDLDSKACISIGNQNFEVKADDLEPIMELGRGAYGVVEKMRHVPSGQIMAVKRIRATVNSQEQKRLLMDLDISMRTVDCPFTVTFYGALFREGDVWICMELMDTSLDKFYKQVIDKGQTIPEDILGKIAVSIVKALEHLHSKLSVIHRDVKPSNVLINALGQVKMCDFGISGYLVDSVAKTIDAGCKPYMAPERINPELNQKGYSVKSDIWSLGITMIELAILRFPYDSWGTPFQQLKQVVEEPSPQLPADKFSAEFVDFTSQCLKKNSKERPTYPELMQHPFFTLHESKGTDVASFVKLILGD

- inhibition [1]: < 50%
- inhibition [2]: < 50%
- inhibition [3]: < 50%
- inhibition [4]: < 50%
- inhibition [5]: < 50%
- inhibition [6]: < 50%
- inhibition [7]: < 50%
- inhibition [8]: < 50%
- inhibition [9]: < 50%
- inhibition [10]: < 50%
- inhibition [11]: < 50%
- inhibition [12]: < 50%
- inhibition [13]: < 50%
- inhibition [14]: < 50%
- inhibition [15]: < 50%
- inhibition [16]: < 50%
- inhibition [17]: < 50%
- inhibition [18]: < 50%
- inhibition [19]: < 50%
- inhibition [20]: < 50%
- inhibition [21]: < 50%
- inhibition [22]: < 50%
- inhibition [23]: < 50%
Structure (SMILES): Cc1cc(OCc2ccc(F)cc2F)c(Br)c(=O)n1Cc1ccc(CN(C)C)cc1
